Laboratory results: patent publication US9366682B2, “Use of stathmin as a biomarker of drug response to furazanobenzimidazoles” (BASILEA PHARMACEUTICA AG, priority 2011, dated 2016)

What was measured:
Type in all cases: cell-based, human
[1] = system: GXF 251 patient-derived gastric tumour cells; experiment: Colony outgrowth assay, patient-derived gastric tumour GXF 251; parameters: key to Response (sensitive/resistant): BAL27862-sensitive tumour cells were those that had IC70 values in the low nanomolar range; BAL27862-resistant tumour cells had IC70 values >600 nanomolar; settings: for Response (sensitive/resistant): colony outgrowth, Gastric GXF 251, by IC70 criteria
Experimental: (§1) Single cell suspensions of patient-derived tumour xenografts (maintained in nude mice) were prepared. For colony outgrowth assays, cells were plated in soft agar in 24-well plates according to the assay introduced by Hamburger & Salmon (Primary bioassay of human tumour stem cells, Science, 1977, 197:461-463). 2×10^4-6×10^4 cells in 0.2 mL medium containing 0.4% agar were plated out on a bottom layer of 0.75% agar. Test compounds were applied in 0.2 mL culture medium. Every 24-well plate contained untreated controls and samples in triplicates. Cultures were incubated at 37° C. and 7.5% CO2 for 5-28 days. 24 hours prior to analysis, vital colonies were stained with a solution of metabolizable tetrazolium salt (Alley M C et al, Life Sci. 1982, 31:3071-3078) and were counted with an automatic image analysis system (Omnicon 3600, Biosys GmbH).
(§2) Relative drug effects were expressed by the ratio of the mean number of colonies in the treated wells and the control wells. IC70-values were determined by plotting compound concentrations versus relative colony counts.

A549 NSCLC cells = experiment: Immunofluorescent staining of microtubules in cultured cells; settings: for Microtubule phenotype: A549, 24 hours treatment, mitotic or G2/M arrested cells, anti-alpha-tubulin staining, BAL27862 50 nM, Compound B 80 nM, Compound C 20 nM; for Microtubule phenotype, combination treatment: colchicine
Experimental: (§3) A549 human non-small cell lung cancer (NSCLC, ATCC reference number CCL-185) cells, HeLa cervical cancer cells (ATCC reference number CCL-2) and SKBR3 breast carcinoma cells (ATCC reference number HTB-30) were seeded at densities of 50% on round microscope coverslips and cultured for 24 hours in RPMI-1640 containing 10% FCS (also referred to as FBS) at 37° C., 5% CO2. Compounds to be tested were dissolved in DMSO. The cell culture medium was replaced with medium containing the diluted compound(s) (paclitaxel, vinblastine, colchicine and nocodazole were purchased from Sigma-Aldrich) or vehicle. After treatment for the times indicated in the Brief Description of the Figures, coverslips were washed and cells were fixed in methanol/acetone (1:1) for 5 minutes at room temperature and subsequently incubated in blocking buffer (0.5% BSA and 0.1% TX-100 in PBS) for 30 minutes at room temperature. Specimens were then incubated with anti-alpha-tubulin antibody (Sigma, 1:2000) for 1 hour at room temperature in blocking buffer. After several washing steps cells were incubated with AlexaFluor-488 goat-anti-mouse IgG (Molecular Probes, 1:3000) for 1 hour at room temperature followed by several washing steps with blocking buffer. Specimens were then mounted with ProLong Gold antifade (Molecular Probes), sealed with nail polish and examined with a Leica immunofluorescence microscope. Images were captured with a cooled CCD-camera and processed by ImageJ software.

[2] = system: MEXF 989 patient-derived melanoma cells; experiment: Colony outgrowth assay, patient-derived melanoma MEXF 989; settings: for Response (sensitive/resistant): colony outgrowth, melanoma MEXF 989 (resistant model 2), by IC70 criteria
Experimental: as §1, §2

[3] = system: MEXF 1341 patient-derived melanoma cells; experiment: Colony outgrowth assay, patient-derived melanoma MEXF 1341; parameters: key to Response (sensitive/resistant): BAL27862-sensitive tumour cells were those that had IC70 values in the low nanomolar range; BAL27862-resistant tumour cells had IC70 values >600 nanomolar; settings: for Response (sensitive/resistant): colony outgrowth, melanoma MEXF 1341, by IC70 criteria
Experimental: as §1, §2

[4] = system: LXFE211 patient-derived lung cancer cells; experiment: Colony outgrowth assay, patient-derived lung cancer LXFE211; parameters: key to Response (sensitive/resistant): BAL27862-sensitive tumour cells were those that had IC70 values in the low nanomolar range; BAL27862-resistant tumour cells had IC70 values >600 nanomolar; settings: for Response (sensitive/resistant): colony outgrowth, Lung LXFE211, by IC70 criteria
Experimental: as §1, §2

[5] = system: MEXF 276 patient-derived melanoma cells; experiment: Colony outgrowth assay, patient-derived melanoma MEXF 276; parameters: key to Response (sensitive/resistant): BAL27862-sensitive tumour cells were those that had IC70 values in the low nanomolar range; BAL27862-resistant tumour cells had IC70 values >600 nanomolar; settings: for Response (sensitive/resistant): colony outgrowth, melanoma MEXF 276 (resistant model 1), by IC70 criteria
Experimental: as §1, §2

[6] = system: GXF 97 patient-derived gastric tumour cells; experiment: Colony outgrowth assay, patient-derived gastric tumour GXF 97; parameters: key to Response (sensitive/resistant): BAL27862-sensitive tumour cells were those that had IC70 values in the low nanomolar range; BAL27862-resistant tumour cells had IC70 values >600 nanomolar; settings: for Response (sensitive/resistant): colony outgrowth, Gastric GXF 97, by IC70 criteria
Experimental: as §1, §2

[7] = system: SKBR3 breast cancer cells; experiment: Immunofluorescent staining of microtubules in cultured cells; settings: SKBR3, 24 hours treatment with 50 nM, anti-alpha-tubulin staining
Experimental: as §3

[8] = system: HeLa cervical cancer cells; experiment: as above; settings: 24 hours treatment with 50 nM, anti-alpha-tubulin staining
Experimental: as §3

[9] = system: LXFE397 patient-derived lung cancer cells; experiment: Colony outgrowth assay, patient-derived lung cancer LXFE397
Experimental: as §1, §2

Compound | Response (sensitive/resistant) [1] | Microtubule phenotype (A549 NSCLC cells) | Response (sensitive/resistant) [3] | Response (sensitive/resistant) [4] | Response (sensitive/resistant) [6] | further results
CC[C@]1(O)C[C@@H]2CN(CCc3c([nH]c4ccccc34)[C@@](C(=O)OC)(c3cc4c(cc3OC)N(C)[C@H]3[C@@](O)(C(=O)OC)[C@H](OC(C)=O)[C@]5(CC)C=CCN6CC[C@]43[C@@H]65)C2)C1 [vinblastine, reference compound] | sensitive | mitotic microtubule phenotypes characteristic of these agents | sensitive | sensitive | sensitive | Response (sensitive/resistant) [2]: resistant (BAL27862-resistant tumour cells had IC70 values >600 nanomolar); Response (sensitive/resistant) [5]: sensitive
COc1cc2c(c(OC)c1OC)-c1ccc(OC)c(=O)cc1[C@@H](NC(C)=O)CC2 [colchicine, reference compound] |  | mitotic microtubule phenotypes characteristic of these agents |  |  |  | 
COC(=O)Nc1nc2ccc(C(=O)c3cccs3)cc2[nH]1 [nocodazole, reference compound] |  | mitotic microtubule phenotypes characteristic of these agents |  |  |  | 
N#CCCNc1nonc1-c1nc2ccccc2n1CC(=O)c1ccc(N)nc1 [Compound C, 3-(4-{1-[2-(6-Amino-pyridin-3-yl)-2-oxo-ethyl]-1H-benzoimidazol-2-yl}-furazan-3-ylamino)-propionitrile] |  | highly reproducible and distinct microtubule phenotype |  |  |  | 
CC(=O)O[C@H]1C(=O)[C@@]2(C)[C@H]([C@H](OC(=O)c3ccccc3)[C@]3(O)C[C@H](OC(=O)[C@H](O)[C@@H](NC(=O)c4ccccc4)c4ccccc4)C(C)=C1C3(C)C)[C@]1(OC(C)=O)CO[C@@H]1C[C@@H]2O [paclitaxel, reference compound] | resistant (BAL27862-resistant tumour cells had IC70 values >600 nanomolar) | mitotic microtubule phenotypes characteristic of these agents | resistant (BAL27862-resistant tumour cells had IC70 values >600 nanomolar) | esistant | resistant (BAL27862-resistant tumour cells had IC70 values >600 nanomolar) | Response (sensitive/resistant) [2]: resistant (BAL27862-resistant tumour cells had IC70 values >600 nanomolar); Response (sensitive/resistant) [5]: resistant (BAL27862-resistant tumour cells had IC70 values >600 nanomolar)
Nc1ccc(C(=O)Cn2c(-c3nonc3N)nc3ccccc32)cc1 [Compound B, 2-[2-(4-Amino-furazan-3-yl)-benzoimidazol-1-yl]-1-(4-amino-phenyl)-ethanone] |  | highly reproducible and distinct microtubule phenotype |  |  |  | 
N#CCCNc1nonc1-c1nc2ccccc2n1CC(=O)c1ccc(N)cc1 [BAL27862, 3-(4-{1-[2-(4-Amino-phenyl)-2-oxo-ethyl]-1H-benzoimidazol-2-yl}-furazan-3-ylamino)-propionitrile] | sensitive | multiple dot-like structures | sensitive | sensitive | resistant (BAL27862-resistant tumour cells had IC70 values >600 nanomolar) | IC70 ([1]; 70% growth inhibition versus controls, Gastric GXF 251): 0.485 µM; Microtubule phenotype [7]: highly reproducible and distinct microtubule phenotype; Microtubule phenotype [8]: highly reproducible and distinct microtubule phenotype; Microtubule phenotype, combination treatment (A549 NSCLC cells; A549, 24 hours BAL27862 with the final 4 hours including vinblastine, paclitaxel or nocodazole): no impact on the observed microtubule phenotype; Microtubule phenotype (A549 NSCLC cells; listed as compound A): highly reproducible and distinct microtubule phenotype; Microtubule phenotype, combination treatment (A549 NSCLC cells; A549, 24 hours vinblastine, paclitaxel or nocodazole with the final 4 hours including BAL27862): disruption of the microtubule structures; IC70 ([9]; 70% growth inhibition versus controls, Lung LXFE397): >3.5 µM; Response (sensitive/resistant) ([9]; colony outgrowth, Lung LXFE397, by IC70 criteria): resistant (BAL27862-resistant tumour cells had IC70 values >600 nanomolar); IC70 ([2]; 70% growth inhibition versus controls, melanoma MEXF 989): >3.5 µM; IC70 ([3]; 70% growth inhibition versus controls, melanoma MEXF 1341): 0.025 µM; IC70 ([4]; 70% growth inhibition versus controls, Lung LXFE211): 0.021 µM; IC70 ([5]; 70% growth inhibition versus controls, melanoma MEXF 276): >3.5 µM; IC70 ([6]; 70% growth inhibition versus controls, Gastric GXF 97): >3.5 µM
